Experimental data taken from US20260364079A1 (Principia Biopharma Inc., priority 2022, published 2026).
Values joined by “and” are separate entries in the source; they are usually repeats but may differ in a detail not shown here. Equal values may be shown once.

Assay: phase 1/2 study in relapsed/refractory ITP (NCT03395210), safety
Settings: for Time From Initial Treatment to Rescue Use: single patient
Description: The Safety Population was used for all safety analyses.
Pre-existing conditions that worsened during a study were reported as AEs.
Safety was graded per NCI CTCAE, version 4.0.

[1] = treatment-related TEAE, any grade
[2] = treatment-related TEAE, grade 1
[3] = treatment-related TEAE, grade 2
[4] = treatment-related TEAE, grade 3/4

Compound: CC(C)(C=C(C#N)C(=O)N1CCC[C@@H](n2nc(-c3ccc(Oc4ccccc4)cc3F)c3c(N)ncnc32)C1)N1CCN(C2COC2)CC1 (mixture of isomers) [rilzabrutinib, (R)-2-[3-[4-amino-3-(2-fluoro-4-phenoxy-phenyl)pyrazolo[3,4-d]pyrimidin-1-yl]piperidine-1-carbonyl]-4-methyl-4-[4-(oxetan-3-yl)piperazin-1-yl]pent-2-enenitrile]
- Rescue medication received but discontinued due to unrelated adverse events (in vivo): Two
- TEAE leading to discontinuation: grade 3 GI hemorrhage (in vivo): 1 patient
- TEAE leading to discontinuation: grade 4 Evans syndrome (in vivo): 1 patient
- TEAE leading to discontinuation: grade 4 thrombocytopenia (in vivo): 1 patient
- TEAE resulting in study drug discontinuation (in vivo): Seven
- TEAE resulting in study drug discontinuation: administrative and site conditions (in vivo): 1 (2%) patients (%)
- TEAE resulting in study drug discontinuation: gastrointestinal (GI) disorders (in vivo): 4 (70%) patients (%)
- TEAE resulting in study drug discontinuation: lymphatic system disorders (in vivo): 2 (40%) patients (%)
- TEAEs leading to study drug discontinuation reported as serious adverse events (in vivo): Four
- Use of rescue medication as cause of study discontinuation (in vivo): four
- serious adverse events leading to discontinuation related to treatment (in vivo): none were related to rilzabrutinib treatment
- toxicity across all doses (in vivo): only low-grade toxicity across all doses
- treatment-related discontinuation: grade 1 fatigue (in vivo): 1 patient
- treatment-related discontinuation: grade 2 GI disorders (in vivo): 2 patients
- infections, thrombotic events, cardiac arrhythmias, liver toxicity, or increased bleeding (limited follow up time): no evidence of infections, thrombotic events, cardiac arrhythmias, liver toxicity, or increased bleeding
- adverse events typically associated with BTK inhibitors (neutropenia, treatment-related infections, bleeding, thrombotic events, fungal infections, atrial fibrillation): no signs or symptoms of adverse events typically associated with BTK inhibitors
- related treatment-emergent serious adverse events (open-label Phase 1/2 study in ITP): no related treatment-emergent serious adverse events
- Time From Initial Treatment to Rescue Use (200 mg qd, baseline 24 × 10^9/L): Day 36
- Time From Initial Treatment to Rescue Use (300 mg bid, baseline 3 × 10^9/L): Day 29
- Time From Initial Treatment to Rescue Use (400 mg bid, baseline 18 × 10^9/L): Day 11
- Abdominal discomfort [1]: 1 (2) number of patients (percent)
- Abdominal distension [1]: 4 (7) number of patients (percent)
- Abdominal pain [1]: 2 (3) number of patients (percent)
- Abnormal dreams [1]: 1 (2) number of patients (percent)
- Akathisia [1]: 1 (2) number of patients (percent)
- Alopecia [1]: — (represents zero events)
- Anemia [1]: — (represents zero events)
- Any TEAE [1]: 31 (52) number of patients (percent)
- Arthralgia [1]: — (represents zero events)
- Arthropod bite [1]: — (represents zero events)
- Back pain [1]: 1 (2) number of patients (percent)
- Conjunctival hemorrhage [1]: — (represents zero events)
- Contusion [1]: 1 (2) number of patients (percent)
- Costochondritis [1]: — (represents zero events)
- Cough [1]: — (represents zero events)
- Decreased appetite [1]: 1 (2) number of patients (percent)
- Defecation urgency [1]: 1 (2) number of patients (percent)
- Diarrhea [1]: 19 (32) number of patients (percent)
- Dizziness [1]: — (represents zero events)
- Dyspepsia [1]: 1 (2) number of patients (percent)
- Dyspnea [1]: — (represents zero events)
- Dyspnea exertional [1]: — (represents zero events)
- Edema [1]: 1 (2) number of patients (percent)
- Epigastric discomfort [1]: 1 (2) number of patients (percent)
- Epistaxis [1]: — (represents zero events)
- Erysipelas [1]: 1 (2) number of patients (percent)
- Fatigue [1]: 6 (10) number of patients (percent)
- Frequent bowel movements [1]: 1 (2) number of patients (percent)
- Headache [1]: 2 (3) number of patients (percent)
- Heavy menstrual bleeding [1]: — (represents zero events)
- Hypoesthesia [1]: 1 (2) number of patients (percent)
- Hypophosphatemia [1]: — (represents zero events)
- I lot flush [1]: 1 (2) number of patients (percent)
- Ilypokalemia [1]: 1 (2) number of patients (percent)
- Increased white blood cell count [1]: 1 (2) number of patients (percent)
- Maculo-papular rash [1]: 1 (2) number of patients (percent)
- Malaise [1]: 1 (2) number of patients (percent)
- Micturition urgency [1]: 1 (2) number of patients (percent)
- Muscle spasms [1]: 1 (2) number of patients (percent)
- Myalgia [1]: 1 (2) number of patients (percent)
- Nasal congestion [1]: — (represents zero events)
- Nasopharyngitis [1]: — (represents zero events)
- Nausea [1]: 18 (30) number of patients (percent)
- Peripheral swelling [1]: — (represents zero events)
- Petechiae [1]: — (represents zero events)
- Pruritus [1]: 2 (3) number of patients (percent)
- Purpura [1]: — (represents zero events)
- Rash [1]: 1 (2) number of patients (percent)
- Thrombocytopena [1]: — (represents zero events)
- Upper abdominal pain [1]: 2 (3) number of patients (percent)
- Upper respiratory tract infection [1]: — (represents zero events)
- Urinary tract infection [1]: — (represents zero events)
- Vomiting [1]: 3 (5) number of patients (percent)
- diarrhea [1]: 32%
- fatigue [1]: 10%
- nausea [1]: 30%
- Abdominal discomfort [2]: 1 (2) number of patients (percent)
- Abdominal distension [2]: 4 (7) number of patients (percent)
- Abdominal pain [2]: — (represents zero events)
- Abnormal dreams [2]: 1 (2) number of patients (percent)
- Akathisia [2]: 1 (2) number of patients (percent)
- Alopecia [2]: — (represents zero events)
- Anemia [2]: — (represents zero events)
- Any TEAE [2]: 27 (45) number of patients (percent)
- Arthralgia [2]: — (represents zero events)
- Arthropod bite [2]: — (represents zero events)
- Back pain [2]: — (represents zero events)
- Conjunctival hemorrhage [2]: — (represents zero events)
- Contusion [2]: 1 (2) number of patients (percent)
- Costochondritis [2]: — (represents zero events)
- Cough [2]: — (represents zero events)
- Decreased appetite [2]: 1 (2) number of patients (percent)
- Defecation urgency [2]: — (represents zero events)
- Diarrhea [2]: 16 (27) number of patients (percent)
- Dizziness [2]: — (represents zero events)
- Dyspepsia [2]: 1 (2) number of patients (percent)
- Dyspnea [2]: — (represents zero events)
- Dyspnea exertional [2]: — (represents zero events)
- Edema [2]: 1 (2) number of patients (percent)
- Epigastric discomfort [2]: — (represents zero events)
- Epistaxis [2]: — (represents zero events)
- Erysipelas [2]: — (represents zero events)
- Fatigue [2]: 5 (8) number of patients (percent)
- Frequent bowel movements [2]: — (represents zero events)
- Headache [2]: 2 (3) number of patients (percent)
- Heavy menstrual bleeding [2]: — (represents zero events)
- Hypoesthesia [2]: — (represents zero events)
- Hypophosphatemia [2]: — (represents zero events)
- I lot flush [2]: — (represents zero events)
- Ilypokalemia [2]: 1 (2) number of patients (percent)
- Increased white blood cell count [2]: — (represents zero events)
- Maculo-papular rash [2]: 1 (2) number of patients (percent)
- Malaise [2]: 1 (2) number of patients (percent)
- Micturition urgency [2]: 1 (2) number of patients (percent)
- Muscle spasms [2]: 1 (2) number of patients (percent)
- Myalgia [2]: 1 (2) number of patients (percent)
- Nasal congestion [2]: — (represents zero events)
- Nasopharyngitis [2]: — (represents zero events)
- Nausea [2]: 16 (27) number of patients (percent)
- Peripheral swelling [2]: — (represents zero events)
- Petechiae [2]: — (represents zero events)
- Pruritus [2]: 1 (2) number of patients (percent)
- Purpura [2]: — (represents zero events)
- Rash [2]: 1 (2) number of patients (percent)
- Thrombocytopena [2]: — (represents zero events)
- Upper abdominal pain [2]: 1 (2) number of patients (percent)
- Upper respiratory tract infection [2]: — (represents zero events)
- Urinary tract infection [2]: — (represents zero events)
- Vomiting [2]: 2 (3) number of patients (percent)
- Abdominal discomfort [3]: — (represents zero events)
- Abdominal distension [3]: — (represents zero events)
- Abdominal pain [3]: 2 (3) number of patients (percent)
- Abnormal dreams [3]: — (represents zero events)
- Akathisia [3]: — (represents zero events)
- Alopecia [3]: — (represents zero events)
- Anemia [3]: — (represents zero events)
- Any TEAE [3]: 15 (25) number of patients (percent)
- Arthralgia [3]: — (represents zero events)
- Arthropod bite [3]: — (represents zero events)
- Back pain [3]: 1 (2) number of patients (percent)
- Conjunctival hemorrhage [3]: — (represents zero events)
- Contusion [3]: — (represents zero events)
- Costochondritis [3]: — (represents zero events)
- Cough [3]: — (represents zero events)
- Decreased appetite [3]: — (represents zero events)
- Defecation urgency [3]: 1 (2) number of patients (percent)
- Diarrhea [3]: 3 (5) number of patients (percent)
- Dizziness [3]: — (represents zero events)
- Dyspepsia [3]: — (represents zero events)
- Dyspnea [3]: — (represents zero events)
- Dyspnea exertional [3]: — (represents zero events)
- Edema [3]: — (represents zero events)
- Epigastric discomfort [3]: 1 (2) number of patients (percent)
- Epistaxis [3]: — (represents zero events)
- Erysipelas [3]: 1 number of patients (percent) and 1 (2) number of patients (percent)
- Fatigue [3]: 1 (2) number of patients (percent)
- Frequent bowel movements [3]: 1 (2) number of patients (percent)
- Headache [3]: — (represents zero events)
- Heavy menstrual bleeding [3]: — (represents zero events)
- Hypoesthesia [3]: 1 (2) number of patients (percent)
- Hypophosphatemia [3]: — (represents zero events)
- I lot flush [3]: 1 (2) number of patients (percent)
- Ilypokalemia [3]: — (represents zero events)
- Increased white blood cell count [3]: 1 (2) number of patients (percent)
- Maculo-papular rash [3]: — (represents zero events)
- Malaise [3]: — (represents zero events)
- Micturition urgency [3]: — (represents zero events)
- Muscle spasms [3]: — (represents zero events)
- Myalgia [3]: — (represents zero events)
- Nasal congestion [3]: — (represents zero events)
- Nasopharyngitis [3]: — (represents zero events)
- Nausea [3]: 2 (3) number of patients (percent)
- Peripheral swelling [3]: — (represents zero events)
- Petechiae [3]: — (represents zero events)
- Pruritus [3]: 1 (2) number of patients (percent)
- Purpura [3]: — (represents zero events)
- Rash [3]: — (represents zero events)
- Thrombocytopena [3]: — (represents zero events)
- Upper abdominal pain [3]: 1 (2) number of patients (percent)
- Upper respiratory tract infection [3]: — (represents zero events)
- Urinary tract infection [3]: — (represents zero events)
- Vomiting [3]: 1 (2) number of patients (percent)
- Abdominal discomfort [4]: — (represents zero events)
- Abdominal distension [4]: — (represents zero events)
- Abdominal pain [4]: — (represents zero events)
- Abnormal dreams [4]: — (represents zero events)
- Akathisia [4]: — (represents zero events)
- Alopecia [4]: — (represents zero events)
- Anemia [4]: — (represents zero events)
- Arthralgia [4]: — (represents zero events)
- Arthropod bite [4]: — (represents zero events)
- Back pain [4]: — (represents zero events)
- Conjunctival hemorrhage [4]: — (represents zero events)
- Contusion [4]: — (represents zero events)
- Costochondritis [4]: — (represents zero events)
- Cough [4]: — (represents zero events)
- Decreased appetite [4]: — (represents zero events)
- Defecation urgency [4]: — (represents zero events)
- Diarrhea [4]: — (represents zero events)
- Dizziness [4]: — (represents zero events)
- Dyspepsia [4]: — (represents zero events)
- Dyspnea [4]: — (represents zero events)
- Dyspnea exertional [4]: — (represents zero events)
- Edema [4]: — (represents zero events)
- Epigastric discomfort [4]: — (represents zero events)
- Epistaxis [4]: — (represents zero events)
- Erysipelas [4]: — (represents zero events)
- Fatigue [4]: — (represents zero events)
- Frequent bowel movements [4]: — (represents zero events)
- Headache [4]: — (represents zero events)
- Heavy menstrual bleeding [4]: — (represents zero events)
- Hypoesthesia [4]: — (represents zero events)
- Hypophosphatemia [4]: — (represents zero events)
- I lot flush [4]: — (represents zero events)
- Ilypokalemia [4]: — (represents zero events)
- Increased white blood cell count [4]: — (represents zero events)
- Maculo-papular rash [4]: — (represents zero events)
- Malaise [4]: — (represents zero events)
- Micturition urgency [4]: — (represents zero events)
- Muscle spasms [4]: — (represents zero events)
- Myalgia [4]: — (represents zero events)
- Nasal congestion [4]: — (represents zero events)
- Nasopharyngitis [4]: — (represents zero events)
- Nausea [4]: — (represents zero events)
- Peripheral swelling [4]: — (represents zero events)
- Petechiae [4]: — (represents zero events)
- Pruritus [4]: — (represents zero events)
- Purpura [4]: — (represents zero events)
- Rash [4]: — (represents zero events)
- Thrombocytopena [4]: — (represents zero events)
- Upper abdominal pain [4]: — (represents zero events)
- Upper respiratory tract infection [4]: — (represents zero events)
- Urinary tract infection [4]: — (represents zero events)
- Vomiting [4]: — (represents zero events)
- grade 1 candida infection (unrelated to treatment): ‡Other infections and infestations not listed in the table that were unrelated to treatment and that occurred in a single patient each included grade 1 candida infection, fungal skin infection, and osteomyelitis; and grade 2 infected skin ulcer and oral herpes.
- patient deaths (unrelated to treatment, 400 mg bid discontinued day 8, died 135 days after initiating): 1 patient
